Measured values from patent US11744837B2, “Use of cortisol in assessment and prophylactic treatment of hypokalemia associated with glucocorticoid receptor modulator treatment of Cushing's syndrome patients” (Corcept Therapeutics, Inc., priority 2018, dated 2023).
Read-outs that look alike come from different tables or passages of the source.

Legend:
[1] = tested on: Cushing's syndrome patients; details: in vivo
Experimental: The risk of experiencing at least one episode of hypokalemia (potassium level <3.5 mEq/L) after 7 to 14 Days of exposure to KORLYM (mifepristone) was evaluated using stepwise multivariable logistic regression and single-variable logistic regression models. The following independent factors were evaluated for potential association with hypokalemia based on the biology of the disease: total cortisol at Day 1, ACTH at Day 1, and potassium level at Day 1.
The risk of experiencing at least one episode of hypokalemia (potassium level <3.5 mmol/L) after 28 Days of exposure to KORLYM was evaluated using stepwise multivariable logistic regression and single-variable logistic regression models. The following independent factors were evaluated for potential association with hypokalemia based on the biology of the disease: total cortisol at Day 1 and Day 14 (cort_01 and cort_14), ACTH at Day 1 and Day 14 (ACTH_01 and ACTH_14), and potassium levels at Day 1 and Day 14 (K_01 and K_14).
Patients were defined to have severe/recurrent hypokalemia for this analysis if they had at least one value of potassium of 2.5 mmol/L or lower, or if they had recurrent hypokalemia (hypokalemia occurring during multiple visits after Day 14 visit).
The Cushing's syndrome study reported herein was conducted in accordance with the Declaration of Helsinki and Good Clinical Practice (GCP) according to International Conference on Harmonization (ICH) guidelines.
(§1) Dosing Schedule Dosing was started with 300 mg of mifepristone once per day for 14 days. After 14 days, if no clinical improvement was seen but the drug was well tolerated, the dose of mifepristone was increased to 600 mg once per day. After 4 weeks of dosing at 600 mg once per day, if no clinical improvement was seen but the drug was well tolerated, the dose was increased to 900 mg once per day. Dose escalation was based on weight with the maximum dose no higher than 20 mg/kg/day. […] After 4 weeks of dosing at 900 mg once per day, if no clinical improvement was seen but the drug was well tolerated, the dose was increased to 1200 mg once per day. Study duration was 24 weeks.
Serum electrolytes, including potassium, were measured regularly throughout the study period.
(§2) Potassium levels were obtained on every subject at either screening or the pre-drug administration baseline visit, and then also at every scheduled post-baseline visit. Potassium levels post-baseline were therefore obtained as early as day 7 and through day 210 (week 30 was the last visit and was the 6 week follow-up visit). ACTH, and cortisol were measured at six visits (week 2 (day 14), week 6 (day 42), week 10 (day 70), week 16 (day 112), and week 24 (day 168) week 6 follow-up (day 210)).

healthy volunteers = assay: Previous clinical studies in healthy volunteers: adverse events; type: in vivo, human
Text: Hypokalemia and rash appear to be more common in subjects receiving mifepristone than in the control groups.

[2] = tested on: psychotic major depression (PMD) subjects; assay: Double blind psychotic major depression (PMD) trials: hypokalemia; type: in vivo, human; details: completed double blind PMD trials
Text: (§3) Clinically meaningful hypokalemia (<3.1) has been reported in 16 of 821 (1.9%) mifepristone treated subjects (12 in completed double blind PMD trials, and 4 in a completed Alzheimer's trial), and in 5 of 626 (0.8%) placebo treated subjects in completed PMD trials.

[3] = tested on: mifepristone treated subjects (PMD and Alzheimer's trials); assay: Completed PMD and Alzheimer's trials together: clinically meaningful hypokalemia; type: in vivo, human; details: 16 of 821 mifepristone treated subjects
Text: as §3

[4] = tested on: Cushing's syndrome patients; details: cited from earlier work
cortisol [5] = assay: 24-hour urine cortisol during mifepristone treatment of Cushing's syndrome patients; type: in vivo, human
Experimental: as §1, §2

ACTH = ACTH levels during mifepristone treatment of Cushing's syndrome patients; type: in vivo, human
Text: (§4) The term “measuring the level,” in the context of cortisol, ACTH, mifepristone, or other compounds, refers to determining, detecting, or quantitating the amount, level, or concentration of, for example, cortisol, ACTH, mifepristone, or other compound in a sample obtained from a subject. Plasma or serum samples are often used for measuring ACTH or cortisol level.
(§5) The types of samples that are suitable for ACTH determination can be serum, plasma, saliva, urine, or any other biological fluid taken from a subject. In preferred embodiments, the sample is a serum sample, or is a plasma sample. The level of ACTH can be measured using various methods, including but not limited to, immunoassays, e.g., competitive immunoassay, radioimmunoassay (MA), immunofluorometric enzyme assay, and ELISA; competitive protein-binding assays; liquid chromatography (e.g., HPLC); and mass spectrometry, e.g., high-performance liquid chromatography/triple quadrupole-mass spectrometry (LC-MS/MS). Commercial kits for measuring ACTH are readily available, e.g., from Mayo clinic (Test ID: ACTH), Siemens Healthcare Global (Immulite® 2000 ACTH assay), and Roche Molecular Diagnostics (Catalog No. 03255751190). In preferred embodiments, ACTH levels are measured using a radioimmunoassay (RIA), most preferable a two-site MA, such as performed by Quest Diagnostics (Secaucus, N.J. 07094).
as §1, §2

cortisol [6] = assay: Total serum cortisol during mifepristone treatment of Cushing's syndrome patients; type: in vivo, human
Text: as §4
as §5, with “cortisol” for “ACTH”, “(LC-MS/MS).” for “(LC-MS/MS). Commercial kits for measuring ACTH are readily available, e.g., from Mayo clinic (Test ID: ACTH), Siemens Healthcare Global (Immulite® 2000 ACTH assay), and Roche Molecular Diagnostics (Catalog No. 03255751190).”, “LC-MS/MS,” for “a radioimmunoassay (RIA), most preferable a two-site MA,”
Dosing Schedule Dosing was started with 300 mg of mifepristone once per day for 14 days. After 14 days, if no clinical improvement was seen but the drug was well tolerated, the dose of mifepristone was increased to 600 mg once per day. After 4 weeks of dosing at 600 mg once per day, if no clinical improvement was seen but the drug was well tolerated, the dose was increased to 900 mg once per day. Dose escalation was based on weight with the maximum dose no higher than 20 mg/kg/day. […]
as §2, with “Potassium levels post-baseline were therefore obtained as early as day 7 and through day 210 (week 30 was the last visit and was the 6 week follow-up visit).” left out

[7] = tested on: subjects in an Alzheimer's study; assay: Alzheimer's study: hypokalemia; type: in vivo, human
Text: as §3

[8] = patients who did not experience hypokalemia
[9] = 43 subjects with Cushing's disease

Severe/Recurrent Hypokalemia ([1]; both, human): 9 (20.0) n (%)
developed hypokalemia on or after Day 28 ([1]; both, human): 6.7%
developed severe/recurrent hypokalemia on or after Day 28 ([1]; both, human): 6.7%
subjects with a Potassium value ≤3.5 mmol/L at any of the six visits ([1]; both, human): 21
subjects with a Potassium value ≤3.5 mmol/L at any post-baseline visit ([1]; both, human): 23
Number with Hypokalemia (%) (Potassium ≤ 3.4 mEq/L) ([1]; both, human, 6 weeks): 7 (14%)
Number with Hypokalemia (%) (Potassium ≤ 3.4 mEq/L) ([1]; both, human, 8 weeks): 4 (8%)
Number with Hypokalemia (%) (Potassium ≤ 3.4 mEq/L) ([1]; both, human, 10 weeks): 4 (8%)
Number with Hypokalemia (%) (Potassium ≤ 3.4 mEq/L) ([1]; both, human, 12 weeks): 3 (6%)
Number with Severe Hypokalemia (%) (Potassium ≤ 2.5 mEq/L) ([1]; both, human, 12 weeks): 1 (2%)
Number with Hypokalemia (%) (Potassium ≤ 3.4 mEq/L) ([1]; both, human, 16 weeks): 5 (10%)
Number with Severe Hypokalemia (%) (Potassium ≤ 2.5 mEq/L) ([1]; both, human, 16 weeks): 1 (2%)
Number with Hypokalemia (%) (Potassium ≤ 3.4 mEq/L) ([1]; both, human, 20 weeks): 1 (2%)
Decreased potassium observed during at least one visit ([1]; both, human, 24 weeks): about 30%
Number with Hypokalemia (%) (Potassium ≤ 3.4 mEq/L) ([1]; both, human, 24 weeks): 4 (8%)
developed hypokalemia after dosing with KORLYM ([1]; both, human, 24 weeks): 42.9%
Number with Hypokalemia (%) (Potassium ≤ 3.4 mEq/L) ([1]; both, human, 30 weeks): 3 (6%)
Number with Severe Hypokalemia (%) (Potassium ≤ 2.5 mEq/L) ([1]; both, human, 30 weeks): 1 (2%)
Number with Hypokalemia (%) (Potassium ≤ 3.4 mEq/L) ([1]; both, human, 1 day): 2 (4%)
Number with Hypokalemia (%) (Potassium ≤ 3.4 mEq/L) ([1]; both, human, 7 day): 2 (4%)
Number with Hypokalemia (%) (Potassium ≤ 3.4 mEq/L) ([1]; both, human, 14 day): 8 (16%)
Number with Severe Hypokalemia (%) (Potassium ≤ 2.5 mEq/L) ([1]; both, human, 14 day): 1 (2%)
share of subjects with a Potassium value ≤3.5 mmol/L as early as day 14, all post-baseline values ([1]; both, human, 14 days): 48%
share of those subjects with a Potassium value ≤3.5 mmol/L as early as day 14 ([1]; both, human, 14 days): 38%
Number with Hypokalemia (%) (Potassium ≤ 3.4 mEq/L) ([1]; both, human, 28 day): 10 (20%)
Number of Subjects Hypokalemic <=3.5 mmol/L ([1]; both, human, 210 day): 3
Number of Subjects Non-Hypokalemic >3.5 mmol/L ([1]; both, human, 210 day): 37
patients with at least one potassium value of 2.5 mmol/L or lower [1]: two
severity of hypokalemia [1]: generally mild to moderate
subjects with a day 7 Potassium value ≤3.5 mmol/L [1]: three
subjects with clinically meaningful hypokalemia (<3.1) [2]: 12
Clinically meaningful hypokalemia (<3.1) [3]: 1.9%
subjects with clinically meaningful hypokalemia (<3.1) ([7]; completed Alzheimer's trial): 4
subjects with hypokalemia in the range of 2.8 to 3.5 mEq/L ([7]; out of 33 subjects, 300 mg per day of mifepristone for 16 weeks): 9
Structure (SMILES): CC#C[C@]1(O)CC[C@H]2[C@@H]3CCC4=CC(=O)CCC4=C3[C@@H](c3ccc(N(C)C)cc3)C[C@@]21C [mifepristone, 11β-(4-dimethylaminophenyl)-17β-hydroxy-17α-(1-propynyl)-estra-4,9-dien-3-one]
frequently reported adverse events (healthy volunteers; mifepristone administered to healthy volunteers): headache, gastrointestinal symptoms including diarrhea, nausea and vomiting, and rash
Hypokalemia and rash compared with the control groups (healthy volunteers; subjects receiving mifepristone): more common
patients with serum potassium levels less than 3.5 mEq/L ([4]; of 43 Cushing's syndrome patients treated with mifepristone): 22
patients with serum potassium levels less than 2.5 mEq/L (severe hypokalemia) ([4]; of the 22 of 43 patients with potassium <3.5 mEq/L): 3
24 Hour Urine Cortisol (nmol/24 hr)/ACTH Ratio Visit Values, Mean ± SD (cortisol [5]; Day 42, Non-Hypokalemic (N 35)): 7.9 ± 6.0 (35)
24 Hour Urine Cortisol (nmol/24 hr)/ACTH Ratio Visit Values, Mean ± SD (cortisol [5]; Day 70, Non-Hypokalemic (N 30)): 17.0 ± 32.7 (30)
24 Hour Urine Cortisol (nmol/24 hr)/ACTH Ratio Visit Values, Mean ± SD (cortisol [5]; Day 112, Non-Hypokalemic (N 23)): 9.6 ± 16.3 (23)
ratios of 24-hour urine cortisol values divided by ACTH values (cortisol [5]; patients experiencing hypokalemia): greater than 20
ratios of 24-hour urine cortisol values divided by ACTH values (cortisol [5]; [8]): less than 20
24 hour urine cortisol levels (cortisol [5]; patients who did not experience hypokalemia, at all times during mifepristone treatment): below 1700 nmol/24 hr
24-hour urine cortisol levels (cortisol [5]; patients who experienced hypokalemia): above 2000 nmol/24 hr
change in 24-hour urine cortisol levels as compared to baseline (cortisol [5]; patients who experienced hypokalemia, day 42): greater than 600 nmol/24 hr
change of ACTH during mifepristone treatment (ACTH; [9]): increased about two-fold
Ratio of ACTH Visit Change Values from Baseline per Baseline (ACTH_CHG/ACTH Baseline), Mean ± SD (ACTH; Day 42, Hypokalemic (N 6)): 2.50 ± 0.61 (6)
Ratio of ACTH Visit Change Values from Baseline per Baseline (ACTH_CHG/ACTH Baseline), Mean ± SD (ACTH; Day 168, Hypokalemic (N 5)): 3.30 ± 2.54 (5)
rise of ACTH levels following an initial increase in mifepristone dose (FIG. 1) (ACTH; [8]): about 25 pg/mL
change of serum cortisol during mifepristone treatment (cortisol [6]; [9]): increased to a smaller degree
total serum cortisol levels (cortisol [6]; patients who did not experience hypokalemia, early on during mifepristone treatment (e.g., day 14 and/or day 42)): below 1000 nmol/L
total serum cortisol levels (cortisol [6]; patients who experienced hypokalemia, early on during mifepristone treatment (e.g., day 14 and day 42)): above 1000 nmol/L
